Converted amounts (≈) assume the structure as drawn. Read-outs that look alike come from different tables or passages of the source.
Key:
[1] = test system: Escherichia coli EC878 (MG1655 tolC::kan); assay: microbe, parasite or virus in culture; type: cell-based
[2] = test system: Escherichia coli EC155 (tet(A)); assay: MIC assay, EC155; type: cell-based; details: Escherichia coli, read-out: MIC EC 155 tetA
[3] = test system: Enterococcus faecalis EF159 (tet(M)); assay: MIC assay, EF159; type: cell-based
[4] = test system: Enterobacter cloacae EC603 (urine isolate); assay: MIC assay, EC603; type: cell-based
[5] = test system: KP 194 7E+05; assay: MIC assay, KP194; details: Table 5
Description: (§1) MICs were determined according to the Clinical and Laboratory Standards Institute (CLSI) guidances (e.g., CLSI. Performance standards for antimicrobial susceptibility testing; nineteenth information supplement. CLSI document M100-S19, CLSI, 940 West Valley Road, Suite 1400, Wayne, Pa. 19087-1898, USA, 2009). Briefly, frozen bacterial strains were thawed and subcultured onto Mueller Hinton Broth (MHB) or other appropriate media (Streptococcus requires blood and Haemophilus requires hemin and NAD). Following incubation overnight, the strains were subcultured onto Mueller Hinton Agar and again incubated overnight. […] Isolated colonies were selected to prepare a starting inoculum equivalent to a 0.5 McFarland standard. […] Test compounds were prepared by dilution in sterile water to a final concentration of 5.128 mg/mL. Antibiotics (stored frozen, thawed and used within 3 hours of thawing) and compounds were further diluted to the desired working concentrations.
(§2) The assays were run as follows. Fifty μL of MHB was added to wells 2-12 of a 96-well plate. One hundred μL of appropriately diluted antibiotics was added to well 1. Fifty μL of antibiotics was removed from well 1 and added to well 2 and the contents of well 2 mixed by pipetting up and down five times. Fifty μL of the mixture in well 2 was removed and added to well 3 and mixed as above. Serial dilutions were continued in the same manner through well 12. Fifty μL was removed from well 12 so that all contained 50 μL. Fifty μL of the working inoculum was then added to all test wells. A growth control well was prepared by adding 50 μL of working inoculum and 50 μL of MHB to an empty well. The plates were then incubated at 37° C. overnight, removed from the incubator and each well was read on a plate reading mirror. The lowest concentration (MIC) of test compound that inhibited the growth of the bacteria was recorded.

[6] = test system: Streptococcus pneumoniae SP106 (ATCC 49619); assay: MIC assay, SP106; type: cell-based; details: ATCC49619, read-out: MIC SP 106 49619
[7] = test system: Pseudomonas aeruginosa PA111 (ATCC 27853); assay: MIC assay, PA111; type: cell-based; details: ATCC27853, read-out: MIC PA 111 27853
[8] = test system: Staphylococcus aureus SA191 (HA-MRSA, tetracycline-resistant); assay: MIC assay, SA191; type: cell-based; details: MRSA, read-out: MIC SA 191
[9] = test system: Moraxella catarrhalis MC205 (ATCC 8176); assay: MIC assay, MC205; type: cell-based; details: ATCC8176, read-out: MIC MC 205 8176
[10] = test system: EC 882 imp; assay: MIC assay, EC882; type: cell-based
Description: Minimum Inhibitory Concentration (MIC) Assay
The assays were run as follows.

[11] = test system: Streptococcus pyogenes SP312 (2009 clinical isolate, tet(M)); assay: MIC assay, SP312; type: cell-based
[12] = test system: Proteus mirabilis PM112 (ATCC 35659); assay: MIC assay, PM112; type: cell-based; details: ATCC35659, read-out: MIC PM 112 35659
[13] = test system: Staphylococcus aureus SA158 (tetracycline-resistant tet(K)); assay: MIC assay, SA158; type: cell-based
[14] = test system: Stenotrophomonas maltophilia SM256 (cystic fibrosis isolate, MDR); assay: MIC assay, SM256; type: cell-based
[15] = test system: Acinetobacter baumannii AB110 (ATCC 19606); assay: MIC assay, AB110; type: cell-based; details: ATCC19606, read-out: MIC AB 110 19606
[16] = test system: Enterococcus faecalis EF103 (ATCC 29212); assay: MIC assay, EF103; type: cell-based; details: ATCC29212, read-out: MIC EF 103 29212
[17] = test system: Proteus mirabilis PM385 (urine ESBL+ isolate); assay: MIC assay, PM385; type: cell-based
[18] = test system: Enterococcus faecalis EF327 (wound isolate, tet(M)); assay: MIC assay, EF327; type: cell-based
[19] = test system: Enterococcus faecium EF404 (blood isolate, tet(M)); assay: MIC assay, EF404; type: cell-based
[20] = test system: Acinetobacter baumannii AB250 (cystic fibrosis isolate, MDR); assay: MIC assay, AB250; type: cell-based
[21] = test system: Pseudomonas aeruginosa PA555 (ATCC BAA-47, PAO1); assay: MIC assay, PA555; type: cell-based
[22] = test system: PA 884 35151; assay: MIC assay, PA884; details: Pseudomonas aeruginosa, read-out: MIC PA 884 351 51
Description: as §1, §2

[23] = test system: Staphylococcus aureus SA101 (ATCC 29213, MSSA); assay: MIC assay, SA101; type: cell-based
[24] = test system: Pseudomonas aeruginosa PA669 (2009 tracheal aspirate isolate); assay: MIC assay, PA669; type: cell-based
[25] = test system: Haemophilus influenzae HI262 (tetracycline-resistant, ampicillin-resistant); assay: MIC assay, HI262; type: cell-based; details: read-out: MIC HI 262 33929

CN(C)[C@@H]1C(O)=C(C(N)=O)C(=O)[C@@]2(O)C(O)=C3C(=O)c4c(O)cccc4C[C@H]3C[C@@H]12 [Sancycline, sancycline]
MIC ([1]; MG1655, read-out: MIC EC 878 toIC, E. coli MG1655 tolC::kan, Table 6): 1 µg/mL (≈ 2.41 µM) | MIC ([1]; MG1655, read-out: MIC EC 878 toIC, E. coli MG1655 tolC::kan, Table 7): 1 µg/mL (≈ 2.41 µM) | MIC ([1]; MG1655, read-out: MIC EC 878 toIC, control compounds): 1 µg/mL (≈ 2.41 µM) | MIC ([1]; MG1655, read-out: MIC EC 878 tolC, control compounds, numeric): 1 µg/mL (≈ 2.41 µM) | MIC [2]: 32 µg/mL (≈ 77.2 µM) | MIC ([3]; read-out: MIC EF 159 tetM, E. faecalis tet(M), Table 4): 8 µg/mL (≈ 19.3 µM) | MIC ([3]; read-out: MIC EF 159 tetM, E. faecalis tet(M), Table 5): 8 µg/mL (≈ 19.3 µM) | MIC [4]: 32 µg/mL (≈ 77.2 µM) | MIC ([4]; read-out: MIC EC 603 tetA): 32 µg/mL (≈ 77.2 µM) | MIC KP 194 7E+05 [5]: 32 μg/mL | MIC [6]: 0.25 µg/mL (≈ 0.603 µM) | MIC [7]: 33 µg/mL (≈ 79.6 µM) | MIC [8]: 8 µg/mL (≈ 19.3 µM) | MIC [9]: 0.13 µg/mL (≈ 0.314 µM) | MIC ([10]; Table 7, read-out: MIC EC 882 imp): 0.25 µg/mL (≈ 0.603 µM) | MIC ([10]; read-out: MIC EC 882 imp, Table 6): 0.25 µg/mL (≈ 0.603 µM) | MIC ([11]; read-out: MIC SP 312): 4 µg/mL (≈ 9.65 µM) | MIC ([11]; read-out: MIC SP 312 tet M): 4 µg/mL (≈ 9.65 µM) | MIC [12]: 4 µg/mL (≈ 9.65 µM) | MIC ([13]; read-out: MIC SA 158 tetK, S. aureus tet(K), Table 4): 4 µg/mL (≈ 9.65 µM) | MIC ([13]; read-out: MIC SA 158 tetK, S. aureus tet(K), Table 5): 4 µg/mL (≈ 9.65 µM) | MIC ([13]; read-out: MIC SA 158 tetK, S. aureus tet(K), Table 6): 4 µg/mL (≈ 9.65 µM) | MIC ([13]; read-out: MIC SA 158 tetK, S. aureus tet(K), Table 7): 4 µg/mL (≈ 9.65 µM) | MIC ([13]; read-out: MIC SA 158 tetK, control compounds): 4 µg/mL (≈ 9.65 µM) | MIC ([13]; read-out: MIC SA 158 tetK, control compounds, numeric): 4 µg/mL (≈ 9.65 µM) | MIC [14]: 1 µg/mL (≈ 2.41 µM) | MIC ([14]; read-out: MIC SM 256): 1 µg/mL (≈ 2.41 µM) | MIC [15]: 0.25 µg/mL (≈ 0.603 µM) | MIC [16]: 8 µg/mL (≈ 19.3 µM) | MIC ([17]; read-out: MIC PM 385): 8 µg/mL (≈ 19.3 µM) | MIC ([17]; read-out: MIC PM 385 CTX-M15): 8 µg/mL (≈ 19.3 µM) | MIC ([18]; read-out: MIC EF 327 tet M): 4 µg/mL (≈ 9.65 µM) | MIC ([18]; read-out: MIC EF 327 tetM): 4 µg/mL (≈ 9.65 µM) | MIC ([19]; read-out: MIC EF 404 tet M): 4 µg/mL (≈ 9.65 µM) | MIC ([19]; read-out: MIC EF 404 tetM): 4 µg/mL (≈ 9.65 µM) | MIC [20]: 16 µg/mL (≈ 38.6 µM) | MIC ([20]; read-out: MIC AB 250): 16 µg/mL (≈ 38.6 µM) | MIC [21]: 32 µg/mL (≈ 77.2 µM) | MIC ([21]; read-out: MIC PA5 55 BAA- 47): 32 µg/mL (≈ 77.2 µM) | MIC ([21]; read-out: MIC PA 555): 32 µg/mL (≈ 77.2 µM) | MIC ([21]; read-out: MIC PA 555 BAA- 47): 32 µg/mL (≈ 77.2 µM) | MIC ([21]; read-out: MIC PA 555 BAA-47): 32 µg/mL (≈ 77.2 µM) | MIC [22]: 4 µg/mL (≈ 9.65 µM) | MIC ([23]; read-out: MIC SA 101 292 13, S. aureus ATCC 29213, MSSA, Table 6): 0.5 µg/mL (≈ 1.21 µM) | MIC ([23]; read-out: MIC SA 101 29213, S. aureus ATCC 29213, MSSA, Table 4): 0.5 µg/mL (≈ 1.21 µM) | MIC ([23]; read-out: MIC SA 101 29213, S. aureus ATCC 29213, MSSA, Table 5): 0.5 µg/mL (≈ 1.21 µM) | MIC ([23]; read-out: MIC SA 101 29213, S. aureus ATCC 29213, MSSA, Table 7): 0.5 µg/mL (≈ 1.21 µM) | MIC ([23]; read-out: MIC SA 101 29213, control compounds): 0.5 µg/mL (≈ 1.21 µM) | MIC ([23]; read-out: MIC SA 101 29213, control compounds, numeric): 0.5 µg/mL (≈ 1.21 µM) | MIC [24]: 33 µg/mL (≈ 79.6 µM) | MIC ([24]; read-out: MIC PA 669): 33 µg/mL (≈ 79.6 µM) | MIC [25]: 0.5 µg/mL (≈ 1.21 µM)
